Measurements taken from patent publication US4009273A, “Substituted 10,11-dihydro-5,10-imino-[5H] dibenzo (a,d)-cycloheptene” (priority 1972, dated 1977).

Columns and labels:
[1] = test system: reserpine ptosis of the eyelid; experiment: Antidepressant activity: antagonism of reserpine eyelid ptosis; assay type: in vivo, rats; details: 1 h before 1 mg/kg reserpine
Procedure: The antidepressant activity was determined by antagonism exercised by the compounds against the depressant activity of reserpine and this effect was determined by ptosis of the eyelid test codified by Rubin [J. Pharm. Exp. Ther., Vol. 120 (1957), p. 125]. The eyelid ptosis test is used to make a quantitative evaluation of the condition of the animal, but the antagonism exercised equally against the neuro depressive symptoms of reserpine; immobility, adynamia, hypothermia, myosis, etc. The reading was effected every hour for 6 hours after intraperitoneal injection of 1 mg/kg of reserpine to groups of rats who had one hour previously received intraperitoneally a variable dose of the test compounds. The ptosis provoked by the reserpine injection was diminished by the previous injection of the test compounds, all the more so at the elevated doses. The results were expressed as a percentage of protection compared to controls which received only reserpine and are reported in Table IV.

Acute toxicity = details: mouse, in vivo, ip, Swiss mice, observed for a week
Procedure: The acute toxicity was determined on groups of Swiss mice weighing 18 to 22 g and the test products were administered intraperitoneally in increasing doses and the animals were kept under observation for a week.

DOPA = experiment: Potentialization of DOPA; assay type: in vivo, mice (male); details: 1 h before 50 mg/kg DOPA
Procedure: In this test, DOPA [racemic β-(3,4-dihydroxyphenyl)-alanine] was administered to mice pretreated with 1-isonicotinoyl-2-isopropyl-hydrazine18 hours before the test which product caused the following symptoms: hypertonicity, agitation, crying, aggressiveness, salivation and exophthalmia. The administration of an antidepressant one hour before the DOPA injection potentializes the intensity of the effects.
Male mice weighing between 18 to 22 g received intraperitoneally 50 mg/kg of 1-isonicotinoyl-2-isopropyl-hydrazine and 18 hours later the test product intraperitoneally in aqueous solution in increasing doses and 1 hour later received an intraperitoneal injection of 50 mg/kg of DOPA. The different effects were evaluated 15 and 30 minutes after the DOPA injection and each symptom was evaluated for each animal on a scale from 0 to 3 and the evaluations for each dose was totaled. The totals are reported in Table III as a percent of the total of control animals.

amytal sleeping time = experiment: Potentialization of sleeping time (amytal); assay type: in vivo, mice (female); details: 1 h before 80 mg/kg amytal i.v.
Procedure: The potentialization of sleeping time was determined with a test using amytal [5-ethyl-5-isoamyl-barbituric acid] in which groups of female mice weighing between 18 and 22 g were kept at 25° C for the duration of the test. The test products were administered intraperitoneally at different doses one hour before intraveinous injection of 80 mg/kg of amytal and the sleeping time was noted which is the time while the reflux of straightening in the mice was negative.

Row | Compound | % Protection ([1]; 2 mg/Kg i.p.) [%] | % Protection ([1]; 10 mg/Kg i.p.) [%] | % Protection ([1]; 20 mg/Kg i.p.) [%] | % Protection ([1]; 50 mg/Kg i.p.) [%] | LD50 at 168 h (Acute toxicity) [mg/kg] | total symptom score as percent of the total of control animals (DOPA; 10 mg/Kg i.p.) [%] | total symptom score as percent of the total of control animals (DOPA; 20 mg/Kg i.p.) [%] | total symptom score as percent of the total of control animals (DOPA; 50 mg/Kg i.p.) [%] | average sleeping time (amytal sleeping time; 5 mg/Kg i.p.) [min] | average sleeping time (amytal sleeping time; 10 mg/Kg i.p.) [min] | average sleeping time (amytal sleeping time; 20 mg/Kg i.p.) [min] | average sleeping time (amytal sleeping time; 50 mg/Kg i.p.) [min]
1 | CNCCN1C2Cc3ccccc3C1c1ccccc12 (stereo not drawn) [Example 28, 12-(2'-methylaminoethyl)-10,11-dihydro-5,10-imino-[5H]-dibenzo (a,d) cycloheptene dl] | 10 | 43 | 60 | 84 | ~150 |  |  |  |  |  |  | 
2 | CN(C)CCN1C2Cc3ccccc3C1c1ccccc12 (stereo not drawn) [Example 29, 12-(2'-dimethylaminoethyl)-10,11-dihydro-5,10-imino-[5H]-dibenzo (a,d) cycloheptene dl] | 9 | 40 | 39 | 66 | ~180 | 81 | 101 | 177 |  |  |  | 
3 | NCCN1C2Cc3ccccc3C1c1ccccc12 (stereo not drawn) [Example 30, 12-(2'-aminoethyl)-10,11-dihydro-5,10-imino-[5H]-dibenzo (a,d) cycloheptene dl] | 18 | 38 | 69 | 74 | ~150 | 113 | 150 |  | 46.3 | 38.1 | 64.1 | 89.0
